Results taken from US20170050966A1, “INHIBITING THE TRANSIENT RECEPTOR POTENTIAL A1 ION CHANNEL” (HYDRA BIOSCIENCES, INC., priority 2014, published 2017).
In brackets after ≈: the same amount, converted by molar mass. Like-named read-outs stand apart in the source and are kept apart here.

Tests used:
[1] = Oral bioavailability of solutions in non-fasted rats; conditions: rat, in vivo, oral solution, read-out: Rat % F
Procedure: Early bioavailability studies in rat were conducted with solutions of the compounds of the invention. Compounds were delivered via oral administration as a solution in an appropriate excipient. Example formulations include, but are not limited to: 4% DMSO, 10% Solutol HS-15, and 86% water or 4% DMSO, 5% Tween, 25% Cremophor EL. Target concentrations were typically 1 mg/mL, and administered via oral gavage to non-fasted rats. The absolute bioavailability is the dose-corrected area under the curve (AUC) non-intravenous divided by the dose corrected AUC intravenous. The formula for calculating F for a drug administered by the oral route (PO) is given below:
% F=AUC PO×Dose IV/AUC IV×Dose PO

[2] = Metabolic stability in liver microsomes; assay type: in vitro ADME
Procedure: Metabolic stability of the compounds of Formula (I) was determined by standard liver microsome assays. Briefly, metabolic stability was tested by adding the compound to be tested dissolved in DMSO to human, dog, or rat liver microsomes. Assays were run with a starting concentration of 1 μM test compound. The reaction was initiated by addition of nicotinamide adenine dinucleotide phosphate[…] (NADPH) regeneration components at 37° C., at which time an aliquot was immediately quenched in an ice-cold acetonitrile/methanol/water solution. Reaction mixture was incubated at 37° C. on a shaker, and additional aliquots were taken at 7, 15, 30 and 60 minutes. Following quench and centrifugation, samples were analyzed on HPLC/MS/MS.

[3] = tested on: formalin model in the rat; assay: Formalin-induced pain test; assay type: in vivo
Procedure: Compound 2 was tested in the formalin-induced pain test reported by Dubuisson et al., Pain (1977) December; 4(2):161-74. Dubuisson et al describe a method for assessing pain and analgesia in rats and cats. Briefly, dilute formalin (50 μL of 3% formalin) is injected into the plantar surface of the hind paw of a rat. […] The initial phase (Phase I: 0-5 min) is thought to have a significant component that is dependent upon direct activation of afferent fibers by formalin and functional TRPA1 (McNamara et al., 2007). The individual responsible for counting the pain behaviors in a particular study is blinded to the treatment groups.
Investigators studied oral administration of Compound 2 at 1, 3 and 10 mg/kg on pain behaviors in the formalin model in the rat. Compound 2 was prepared as solutions in 4% DMSO, 10% Solutol HS15, 86% WFI. Animals were dosed orally with Vehicle (4% DMSO, 10% Solutol, 86% WFI), or Compound 2 at 1, 3 or 10 mg/kg one hour prior to intraplantar formalin. […] (n=8 per group) (*=p<0.05, **=p<0.01, *** p<0.001: 1-tailed T-test)
A reduction in the duration of pain behaviors was also observed with Compound 4 from 0-5 minutes post-formalin administration. Using the methods described above for the formalin assay, Compound 4 was formulated as a solution in 4% DMSO; 5% Tween-80; 20% Cremophor EL; and 71% WFI and administered by oral gavage to rats.
Using the methods described above for the formalin assay, Compound 4 was formulated as a suspension in 0.5% methylcellulose and administered by oral gavage to rats.
The persistence of the response was also studied. Compound 2 was prepared as a solution in 4% DMSO, 10% Solutol HS15, and 86% WFI. Rats were treated with 10 mg/kg of oral doses of Compound 2 or with the vehicle (PO).

human TRPA1 (hTRPA1) = molecular target: T1, human TRPA1 (hTRPA1) (Homo sapiens, UniProt O75762); assay: Inhibition of human TRPA1, whole-cell patch clamp; assay type: cell-based
T1 construct: expressed in transfected cells
Procedure: Data for TRPA1 inhibition was obtained by this method for the indicated compounds of Formula (I), with the relevant data included in Table 14 below. All currents were recorded in whole-cell configuration using EPC-9 and EPC-10 amplifiers and Patchmaster software (HEKA). […] The standard pipette solution consisted of 140 mM CsAsp, 10 mM EGTA, 10 mM HEPES, […], 1.91 mM CaCl2, and up to 0.3 mM Na2GTP, with pH adjusted to 7.2 with CsOH. In addition, a solution containing 145 mM CsCl, 10 mM HEPES, 10 mM EGTA, and up to 0.3 mM Na2GTP and 1 mM MgCl2 (pH 7.2 adjusted with CsOH) can be used. The standard bath solution contained 150 mM NaCl, 10 mM HEPES, 10 mM glucose, 4.5 mM KCl, 1 mM EGTA, 3 mM MgCl2, with pH adjusted to 7.4 with NaOH. In some instances, 2 mM CaCl2 was added in place of EGTA and the concentration of MgCl2 was reduced to 1 mM.
Data were collected either by continuous recordings at −60 mV or by applying voltage ramps from a holding potential of 0 mV every 4 s. Continuous recordings were collected at 400 Hz and digitally filtered off-line at 10 Hz for presentation. Voltage ramps were applied from −100 mV to 100 mV over the course of 400 ms, and data were collected at 10 kHz and filtered at […]. Inward and outward currents were analyzed from the ramps at −80 and 80 mV, respectively. Liquid junction potential correction was not used.
Solutions were switched using a gravity-fed continuous focal perfusion system. To achieve rapid temperature changes, two temperature control, and perfusion systems were employed simultaneously. For temperatures greater than or equal to 22° C., a Warner Instruments bipolar temperature controller (TC-344B) and inline heater (SHM-8) were used. […] Temperatures were confirmed using a thermistor (Warner Instruments, TA-29), with temperatures at the recorded cell estimated to be within +/−2° C. of those reported.
The antagonist effects of compounds of Formula (I) against human TRPA1 (“hTRPA1”) in a whole cell patch configuration were evaluated using the in vitro assay protocol described above.

[4] = Solubility in Normal Ringer Solution; assay type: physicochemical; conditions: aqueous buffer, kinetic from dmso stock, pH 7.4, room temperature
Procedure: Compounds of the invention were also tested for solubility in Normal Ringer Solution. […] Following vortex and incubation for 40 minutes at room temperature, solutions were filtered, quenched with acetonitrile, and analyzed by liquid chromatography. Solubility limits were determined by comparison to a standard curve. […] Solubility is reported as “greater than” if the observed increase between the last 2 dilutions tested is greater than 2-fold.

[5] = dog liver microsomes, female, read-out: Female Half-Life
[6] = rat liver microsomes, both sexes, read-out: Half-Life Both sexes
[7] = rat liver microsomes, male, read-out: Male Half-Life
[8] = antagonist effect, whole cell patch configuration, read-out: hTRPA1
[9] = 10 mg/kg PO, 1 Hr pre-treatment
[10] = 10 mg/kg PO, 2 Hr pre-treatment
[11] = 10 mg/kg PO, 4 Hr pre-treatment
[12] = 10 mg/kg PO, 6 Hr pre-treatment
[13] = 10 mg/kg PO, 15 Min pre-treatment
[14] = 10 mg/kg PO, 24 Hr pre-treatment
[15] = 10 mg/kg PO, 30 Min pre-treatment
[16] = 1 mpk PO, one hour prior to formalin
[17] = 3 mpk PO, one hour prior to formalin
[18] = 10 mpk PO, one hour prior to formalin
[19] = 1 mpk PO, solution in DMSO/Tween-80/Cremophor EL/WFI
[20] = 1 mpk PO, suspension in 0.5% methylcellulose

T1 sequence (O75762 whole entry): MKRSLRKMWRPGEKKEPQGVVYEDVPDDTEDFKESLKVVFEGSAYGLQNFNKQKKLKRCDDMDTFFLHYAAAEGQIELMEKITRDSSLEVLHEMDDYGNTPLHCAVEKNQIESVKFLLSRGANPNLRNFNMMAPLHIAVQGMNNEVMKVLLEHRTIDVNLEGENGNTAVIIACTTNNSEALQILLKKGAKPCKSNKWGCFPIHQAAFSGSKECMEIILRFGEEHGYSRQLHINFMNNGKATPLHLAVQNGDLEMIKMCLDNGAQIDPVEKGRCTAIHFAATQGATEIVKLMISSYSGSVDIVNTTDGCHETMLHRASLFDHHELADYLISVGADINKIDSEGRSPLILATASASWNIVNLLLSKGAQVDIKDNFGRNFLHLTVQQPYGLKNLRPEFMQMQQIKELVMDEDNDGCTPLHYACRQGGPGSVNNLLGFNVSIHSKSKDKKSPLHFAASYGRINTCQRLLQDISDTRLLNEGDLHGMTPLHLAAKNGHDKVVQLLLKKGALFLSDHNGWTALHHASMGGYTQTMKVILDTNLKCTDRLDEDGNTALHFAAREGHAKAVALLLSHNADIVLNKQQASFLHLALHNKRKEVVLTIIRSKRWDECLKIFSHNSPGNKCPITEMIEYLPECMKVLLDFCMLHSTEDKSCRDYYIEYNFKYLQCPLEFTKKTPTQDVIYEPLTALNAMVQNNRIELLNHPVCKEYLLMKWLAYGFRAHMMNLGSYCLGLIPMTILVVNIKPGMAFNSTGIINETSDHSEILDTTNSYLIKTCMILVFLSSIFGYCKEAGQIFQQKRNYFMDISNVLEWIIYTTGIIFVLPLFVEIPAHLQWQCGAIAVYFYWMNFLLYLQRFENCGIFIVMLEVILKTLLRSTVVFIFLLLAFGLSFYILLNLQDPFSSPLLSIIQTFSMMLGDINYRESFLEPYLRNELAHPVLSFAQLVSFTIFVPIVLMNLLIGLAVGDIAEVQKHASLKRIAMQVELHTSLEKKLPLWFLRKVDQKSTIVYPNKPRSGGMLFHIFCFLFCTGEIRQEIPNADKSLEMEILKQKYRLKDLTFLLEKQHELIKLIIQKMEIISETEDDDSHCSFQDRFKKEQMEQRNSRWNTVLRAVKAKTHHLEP

With `C[C@@H](C(=O)Nc1ccnc(-c2cnc(N3CCCC3(C)C)nc2)n1)n1cnc2c1c(=O)n(C)c(=O)n2C` [Compound 1, (S)-2-(1,3-dimethyl-2,6-dioxo-2,3-dihydro-1H-purin-7(6H)-yl)-N-(2′-(2,2-dimethylpyrrolidin-1-yl)-[2,5′-bipyrimidin]-4-yl)propanamide] the bioavailability [1] was 46%, the “Female Hepatic Clearance” value ([2]; dog liver microsomes, female) was 18 mL/min/kg and the half-life at 1 μM [2, 5] was 18 min. For the same compound, the “Male Hepatic Clearance” value ([2]; dog liver microsomes, male) was 22 mL/min/kg, the half-life at 1 μM ([2]; dog liver microsomes, male, read-out: Male Half-Life) was 10 min and the half-life at 1 μM [2, 6] was 39.2 min. The “Female Hepatic Clearance” value ([2]; rat liver microsomes, female) was 20 mL/min/kg, the half-life at 1 μM ([2]; rat liver microsomes, female, read-out: Female Half-Life) was 46 min and the “Male Hepatic Clearance” value ([2]; rat liver microsomes, male) was 29 mL/min/kg. The half-life at 1 μM [2, 7] was 22 min, the “Duration 0-2 min” value ([3]; 1 mg/kg IV) was 35.50 s and the “Duration 0-5 min” value ([3]; 1 mg/kg IV) was 153.25 s. For the same compound, the “Duration 0-2 min” value ([3]; 3 mg/kg IV) was 6.25 s, the “Duration 0-5 min” value ([3]; 3 mg/kg IV) was 111.25 s and the IC50 (human TRPA1 (hTRPA1); [8]) was 5.15 nM. For the same compound, the solubility at 40 min [4] was over 14.3 µM.
`C[C@@H](C(=O)Nc1ccnc(-c2cnc(N3CCC[C@H]3C(F)(F)F)nc2)n1)n1cnc2c1c(=O)n(C)c(=O)n2C` [Compound 2, (S)-2-(1,3-dimethyl-2,6-dioxo-2,3-dihydro-1H-purin-7(6H)-yl)-N-(2′-((S)-2-(trifluoromethyl)pyrrolidin-1-yl)-[2,5′-bipyrimidin]-4-yl)propanamide] gave a bioavailability [1] of 100%, a half-life at 1 μM ([2]; dog liver microsomes, both sexes, read-out: Half-Life both sexes) of 22.9 min and a half-life at 1 μM [2, 5] of 22.9 min. For the same compound, the half-life at 1 μM [2, 6] was over 60 min, the “Male Hepatic Clearance” value ([2]; rat liver microsomes, male) was 2 mL/min/kg and the half-life at 1 μM [2, 7] was 787 min. For the same compound, the “reduction of pain behaviors from 0-5 minutes” value ([3]; 1 mg/kg PO, vs vehicle, did not reach statistical significance) was about 14%, the “decrease in the duration of pain behaviors from 0-2 minutes” value ([3]; 1 mg/kg PO, vs vehicle, not statistically significant) was about 14% and the “decrease in formalin-induced pain behaviors from 0-2 minutes” value ([3]; 3 mg/kg PO, vs vehicle) was about 72%. The “reduction of duration of pain behaviors from 0-5 minutes” value ([3]; 3 mg/kg PO, vs vehicle) was about 46%, the “Duration 0-2 min” value [3, 9] was 14.50 s and the “Duration 0-5 min” value [3, 9] was 146.14 s. For the same compound, the “Duration 0-2 min” value [3, 10] was 12.00 s, the “Duration 0-5 min” value [3, 10] was 118.10 s and the “Duration 0-2 min” value [3, 11] was 19.00 s. For the same compound, the “Duration 0-5 min” value [3, 11] was 135.84 s, the “Duration 0-2 min” value [3, 12] was 22.75 s and the “Duration 0-5 min” value [3, 12] was 156.61 s. For the same compound, the “Duration 0-2 min” value [3, 13] was 82.50 s, the “Duration 0-5 min” value [3, 13] was 185.43 s and the “Duration 0-2 min” value [3, 14] was 96.63 s. For the same compound, the “Duration 0-5 min” value [3, 14] was 197.15 s, the “Duration 0-2 min” value [3, 15] was 62.50 s and the “Duration 0-5 min” value [3, 15] was 181.40 s. For the same compound, the “decrease in the duration of formalin-induced pain behaviors 0-2 minutes” value ([3]; 10 mg/kg PO, 15 minute to 6 hour pre-treatment, vs vehicle) was 30-87%, the “duration of formalin-mediated pain behaviors” value ([3]; 10 mg/kg PO, 30 minutes to 6 hours prior to formalin injection) was “significantly decreased the duration of formalin-mediated pain behaviors” and the “decrease in formalin-induced pain behaviors from 0-2 minutes” value ([3]; 10 mg/kg PO, vs vehicle) was about 89%. The “reduction of duration of pain behaviors from 0-5 minutes” value ([3]; 10 mg/kg PO, vs vehicle) was about 60%, the “Duration 0-2 min” value [3, 16] was 73.00 s and the “Duration 0-5 min” value [3, 16] was 157.38 s. The “Duration 0-2 min” value [3, 17] was 23.25 s, the “Duration 0-5 min” value [3, 17] was 99.00 s and the “Duration 0-2 min” value [3, 18] was 9.25 s. The “Duration 0-5 min” value [3, 18] was 73.50 s, the IC50 (human TRPA1 (hTRPA1); [8]) was 6.87 nM and the IC50 (human TRPA1 (hTRPA1); hTRPA1, 10 μM AITC, read-out: IC50 Inward current) was 6.9 ± 3.1 nM. It also gave a solubility at 40 min [4] of about 32.4 µM (≈ 17.6 µg/mL).
With `C[C@@H](C(=O)Nc1ccnc(-c2cnc(N3CCC[C@@H]3C(F)(F)F)nc2)n1)n1cnc2c1c(=O)n(C)c(=O)n2C` [Compound 4, (S)-2-(1,3-dimethyl-2,6-dioxo-2,3-dihydro-1H-purin-7(6H)-yl)-N-(2′-((R)-2-(trifluoromethyl)pyrrolidin-1-yl)-[2,5′-bipyrimidin]-4-yl)propanamide] the bioavailability [1] was 100%, the half-life at 1 μM [2, 6] was 72.6 min and the “Duration 0-2 min” value [3, 19] was 76.13 s. The “Duration 0-5 min” value [3, 19] was 197.88 s, the “Duration 0-2 min” value [3, 20] was 80.38 s and the “Duration 0-5 min” value [3, 20] was 186.25 s. For the same compound, the “Duration 0-2 min” value ([3]; 3 mpk PO, solution) was 45.25 s, the “Duration 0-5 min” value ([3]; 3 mpk PO, solution) was 175.88 s and the “Duration 0-2 min” value ([3]; 3 mpk PO, suspension) was 51.13 s. The “Duration 0-5 min” value ([3]; 3 mpk PO, suspension) was 163.25 s, the “Duration 0-2 min” value ([3]; 10 mpk PO, solution) was 47.13 s and the “Duration 0-5 min” value ([3]; 10 mpk PO, solution) was 191.00 s. For the same compound, the “Duration 0-2 min” value ([3]; 10 mpk PO, suspension) was 38.13 s, the “Duration 0-5 min” value ([3]; 10 mpk PO, suspension) was 144.25 s and the IC50 (human TRPA1 (hTRPA1); [8]) was 11.3 nM. It also gave a solubility at 40 min [4] of over 31.3 µM.
